Assay results published in patent publication US6818663B2, “Diaminothiazoles” (Hoffmann-La Roches, priority 2002, dated 2004).

Key:
human cyclin D1-CDK4 = human cyclin D1-CDK4 (Homo sapiens, UniProt P11802); test: FlashPlate kinase assay, cyclin D1-CDK4, Rb substrate; type: biochemical; details: recombinant cyclin D1-CDK4, Rb phosphorylation, 1 μM ATP
Outline: (§1)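 Recombinant human cyclin–CDK complexes, co-expressed in insect cells, phosphorylated His-tagged Rb (aa 386-928) coated on FlashPlates at 10 μg/ml. Reaction used 1 μM ATP plus 4 nM ^33P-ATP and 20 mM MgCl2 for 30 min at room temperature. % inhibition came from scintillation counts against no-enzyme and no-compound wells, and IC50 was the concentration halving radiolabel incorporation.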

human cyclin B-CDK1 = human cyclin B-CDK1 (Homo sapiens, UniProt P06493); test: FlashPlate kinase assay, cyclin B-CDK1, Rb substrate; type: biochemical; details: recombinant cyclin B-CDK1, Rb phosphorylation, 1 μM ATP
Outline: as §1

[1] = tested on: HCT116, a colorectal carcinoma cell line; test: Tetrazolium dye proliferation assay (MTT assay); type: cell-based; details: Homo sapiens, HCT-116, HCT116 cells, inhibition of cell proliferation
Outline: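 HCT116 cells in McCoy's 5A + 10% FCS, plated overnight, then dosed in duplicate with serial dilutions (final DMSO 0.3%) and incubated to growth-curve time points. MTT at 1 mg/ml for 2.5-3 h, formazan in ethanol, A570/650. IC50 by linear regression of log concentration vs % inhibition relative to blank and DMSO controls.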

human cyclin E-CDK2 = human cyclin E-CDK2 (Homo sapiens, UniProt P24941); test: FlashPlate kinase assay, cyclin E-CDK2, Rb substrate; type: biochemical; details: recombinant cyclin E-CDK2, Rb phosphorylation, 1 μM ATP
Outline: as §1

Chain of human cyclin B-CDK1 (P06493 whole entry): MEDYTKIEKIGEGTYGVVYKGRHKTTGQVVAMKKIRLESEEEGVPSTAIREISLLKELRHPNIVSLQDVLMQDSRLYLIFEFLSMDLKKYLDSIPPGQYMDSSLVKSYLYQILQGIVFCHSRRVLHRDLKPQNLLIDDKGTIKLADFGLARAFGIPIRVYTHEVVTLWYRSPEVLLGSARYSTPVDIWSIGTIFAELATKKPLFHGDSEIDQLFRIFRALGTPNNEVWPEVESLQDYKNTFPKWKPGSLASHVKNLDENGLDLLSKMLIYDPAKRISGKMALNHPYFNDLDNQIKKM
Chain of human cyclin B-CDK1 (P14635 whole entry partner): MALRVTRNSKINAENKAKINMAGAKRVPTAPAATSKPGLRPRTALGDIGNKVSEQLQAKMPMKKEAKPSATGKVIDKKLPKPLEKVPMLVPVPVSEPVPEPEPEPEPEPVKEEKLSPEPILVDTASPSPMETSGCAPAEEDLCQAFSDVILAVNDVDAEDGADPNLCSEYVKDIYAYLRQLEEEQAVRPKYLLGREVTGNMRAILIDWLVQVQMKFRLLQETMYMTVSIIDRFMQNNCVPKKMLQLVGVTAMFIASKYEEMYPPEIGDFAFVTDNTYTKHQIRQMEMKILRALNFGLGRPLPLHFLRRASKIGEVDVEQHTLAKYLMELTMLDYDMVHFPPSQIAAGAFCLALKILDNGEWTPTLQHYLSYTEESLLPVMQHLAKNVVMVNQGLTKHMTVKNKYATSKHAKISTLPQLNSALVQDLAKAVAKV
Chain of human cyclin D1-CDK4 (P11802 whole entry, the tested form may be a part): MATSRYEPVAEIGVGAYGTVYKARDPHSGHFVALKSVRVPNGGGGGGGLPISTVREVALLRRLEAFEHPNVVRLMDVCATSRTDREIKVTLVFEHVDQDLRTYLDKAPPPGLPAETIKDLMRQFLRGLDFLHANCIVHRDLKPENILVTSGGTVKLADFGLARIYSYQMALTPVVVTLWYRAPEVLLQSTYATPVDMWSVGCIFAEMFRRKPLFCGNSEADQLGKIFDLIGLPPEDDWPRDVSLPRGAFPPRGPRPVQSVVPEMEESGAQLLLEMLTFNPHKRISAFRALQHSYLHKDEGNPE
Chain of human cyclin D1-CDK4 (P24385 whole entry partner, the tested form may be a part): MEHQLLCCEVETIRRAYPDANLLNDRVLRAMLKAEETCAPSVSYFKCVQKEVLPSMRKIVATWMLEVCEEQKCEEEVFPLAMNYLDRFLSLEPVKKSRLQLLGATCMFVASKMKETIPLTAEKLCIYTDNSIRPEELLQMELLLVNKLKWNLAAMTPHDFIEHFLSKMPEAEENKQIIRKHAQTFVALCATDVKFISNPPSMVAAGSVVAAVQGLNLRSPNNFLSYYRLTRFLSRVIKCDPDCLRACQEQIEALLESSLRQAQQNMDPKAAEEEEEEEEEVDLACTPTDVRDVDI

Row | IC50 (human cyclin D1-CDK4) | IC50 (human cyclin B-CDK1) | IC50 [1] | IC50 (human cyclin E-CDK2) | melting point | SMILES
1 | 0.062 µM | 3.9 µM | 1.07 µM | 3.34 µM |  | CN1CCC[C@H]1COc1ccc(Nc2nc(N)c(C(=O)c3cccc(C4CC4)c3)s2)cc1 [Example 113, (S)-[4-Amino-2-[4-(1-methyl-pyrrolidin-2-ylmethoxy)-phenylamino]-thiazol-5-yl]-(3-cyclopropyl-phenyl)-methanone]
2 | 0.063 µM | 0.85 µM | 2.07 µM | 5.03 µM |  | Cc1ccc(C(=O)c2sc(Nc3ccc(OC[C@@H]4CCCN4C)cc3)nc2N)cc1F [Example 114, (S)-[4-Amino-2-[4-(1-methyl-pyrrolidin-2-ylmethoxy)-phenylamino]-thiazol-5-yl]-(3-fluoro-4-methyl-phenyl)-methanone]
3 | 0.027 µM | 0.357 µM | 0.169 µM | 0.267 µM |  | CCCc1cc(C(=O)c2sc(Nc3ccc(OC[C@@H]4CCCN4C)cc3)nc2N)ccc1O [Example 115, (S)-[4-Amino-2-[4-(1-methyl-pyrrolidin-2-ylmethoxy)-phenylamino]-thiazol-5-yl]-(4-hydroxy-3-propyl-phenyl)-methanone Acetate]
4 | 0.062 µM | 0.248 µM | 0.517 µM | 0.889 µM |  | Nc1nc(Nc2ccc(OCCN3CCCC3)cc2)sc1C(=O)c1cccc(F)c1 [Example 118, [4-Amino-2-[4-(2-pyrrolidin-1-yl-ethoxy)-phenylamino]-thiazol-5-yl]-(3-fluoro-phenyl)-methanone; Compound With Acetic Acid]
5 | 0.06 µM | 1.79 µM | 1.06 µM | 4.91 µM |  | COc1cccc(C(=O)c2sc(Nc3ccc(OC[C@@H](C)N4CCCC4)cc3)nc2N)c1 [Example 121, [R]-[4-Amino-2-[4-(2-pyrrolidin-1-yl-propoxy)-phenylamino]-thiazol-5-yl]-(3-methoxy-phenyl)-methanone; Compound With Acetic Acid]
6 | 0.036 µM | 0.422 µM | 1.87 µM | 1.66 µM |  | CCN(CC)CCOc1ccc(Nc2nc(N)c(C(=O)c3ccc(O)c(F)c3)s2)cc1 [Example 123, [4-Amino-2-[4-(2-diethylamino-ethoxy)-phenylamino]-thiazol-5-yl]-(3-fluoro-4-hydroxy-phenyl)-methanone]
7 | 0.065 µM | 2.05 µM | 4.59 µM | 1.31 µM |  | Nc1nc(Nc2ccc(OCCN3CCCC3)cc2)sc1C(=O)c1cccc(C(F)(F)F)c1 [Example 128, [4-Amino-2-[4-(2-pyrrolidin-1-yl-ethoxy)-phenylamino]-thiazol-5-yl]-(3-trifluoromethyl-phenyl)-methanone]
8 | 0.019 µM | 0.457 µM | 1.73 µM | 2.75 µM |  | CC(C)NCCOc1ccc(Nc2nc(N)c(C(=O)c3ccc4c(c3)OCO4)s2)cc1 [Example 137, [4-Amino-2-[4-(2-isopropylamino-ethoxy)-phenylamino]-thiazol-5-yl]-benzo[1,3]dioxol-5-yl-methanone]
9 | 0.041 µM | 0.219 µM |  | 0.9 µM | 118 to 123 °C | CCN(CC)CCOc1ccc(Nc2nc(N)c(C(=O)c3cccc(OC)c3)s2)cc1 [Example 145, [4-Amino-2-[4-(2-diethylaminoethoxy)-phenylamino]-thiazol-5-yl]-(3-methoxy-phenyl)-methanone]

Continued, compound first:

Row | SMILES | IC50 (human cyclin D1-CDK4) | IC50 (human cyclin B-CDK1) | IC50 [1] | IC50 (human cyclin E-CDK2) | melting point
10 | CCCc1cc(C(=O)c2sc(Nc3ccc(OC[C@@H](C)N(C)C)cc3)nc2N)ccc1O [Example 107, (R)-[4-Amino-2-[4-(2-dimethylamino-propoxy)-phenylamino]-thiazol-5-yl]-(4-hydroxy-3-propyl-phenyl)-methanone; Compound With Acetic Acid] | 0.026 µM | 0.24 µM | 0.491 µM | 0.213 µM | 
11 | CCCc1cc(C(=O)c2sc(Nc3ccc(OCC(C)(C)N(C)C)cc3)nc2N)ccc1O [Example 108, [4-Amino-2-[4-(2-dimethylamino-2-methyl-propoxy)-phenylamino]-thiazol-5-yl]-(4-hydroxy-3-propyl-phenyl)-methanone; Compound With Acetic Acid] | 0.026 µM | 0.291 µM | 0.518 µM | 0.295 µM | 
12 | CCCc1cc(C(=O)c2sc(Nc3ccc(OCCN4CCCC4)cc3)nc2N)ccc1O [Example 109, [4-Amino-2-[4-(2-pyrrolidin-1-yl-ethoxy)-phenylamino]-thiazol-5-yl]-(4-hydroxy-3-propyl-phenyl)-methanone; Compound With Acetic Acid] | 0.014 µM | 0.151 µM | 0.229 µM | 0.207 µM | 
13 | CCCc1cc(C(=O)c2sc(Nc3ccc(OC[C@@H](C)N4CCCC4)cc3)nc2N)ccc1O [Example 110, (R)-[4-Amino-2-[4-(2-pyrrolidin-1-yl-propoxy)-phenylamino]-thiazol-5-yl]-(4-hydroxy-3-propyl-phenyl)-methanone; Compound With Acetic Acid] | 0.023 µM | 0.177 µM | 0.291 µM | 0.182 µM | 
14 | CCc1cccc(C(=O)c2sc(Nc3ccc(OC[C@@H]4CCCN4C)cc3)nc2N)c1 [Example 112, (S)-[4-Amino-2-[4-(1-methyl-pyrrolidin-2-ylmethoxy)-phenylamino]-thiazol-5-yl]-(3-ethyl-phenyl)-methanone] | 0.042 µM | 1.89 µM | 0.419 µM | 2.32 µM | 
15 | Nc1nc(Nc2ccc(OCCN3CCCC3)cc2)sc1C(=O)c1ccc(O)c(F)c1 [Example 120, [4-Amino-2-[4-(2-pyrrolidin-1-ylethoxy)-phenylamino]-thiazol-5-yl]-(3-fluoro-4-hydroxy-phenyl)-methanone; Compound With Acetic Acid] | 0.038 µM | 0.422 µM | 1.63 µM | 0.781 µM | 
16 | CCN(CC)CCOc1ccc(Nc2nc(N)c(C(=O)c3ccc(OC)c(F)c3)s2)cc1 [Example 125, [4-Amino-2-[4-(2-diethylamino-ethoxy)-phenylamino]-thiazol-5-yl]-(3-fluoro-4-methoxy-phenyl)-methanone] | 0.032 µM | 2.18 µM | 2.22 µM | 6.79 µM | 
17 | CCN(CC)CCOc1ccc(Nc2nc(N)c(C(=O)c3cccc(SC)c3)s2)cc1 [Example 126, [4-Amino-2-[4-(2-diethylamino-ethoxy)-phenylamino]-thiazol-5-yl]-(3-methylsulfanyl-phenyl)-methanone] | 0.047 µM | 1.65 µM | 3.97 µM | 6.07 µM | 
18 | CCNCCOc1ccc(Nc2nc(N)c(C(=O)c3cccc(OC)c3)s2)cc1 [Example 130, [4-Amino-2-[4-(2-ethylamino-ethoxy)-phenylamino]-thiazol-5-yl]-(3-methoxy-phenyl)-methanone] | 0.048 µM | 0.784 µM | 1.39 µM | 3.33 µM | 
19 | CCNCCOc1ccc(Nc2nc(N)c(C(=O)c3cccc(F)c3)s2)cc1 [Example 131, [4-Amino-2-[4-(2-ethylamino-ethoxy)-phenylamino]-thiazol-5-yl]-(3-fluoro-phenyl)-methanone] | 0.52 µM | 0.298 µM | 0.693 µM | 0.892 µM | 
20 | CCNCCOc1ccc(Nc2nc(N)c(C(=O)c3ccc4c(c3)OCO4)s2)cc1 [Example 133, [4-Amino-2-[4-(2-ethylamino-ethoxy)-phenylamino]-thiazol-5-yl]-benzo[1,3]dioxol-5-yl-methanone] | 0.029 µM | 0.338 µM | 3 µM | 3.17 µM | 
21 | COc1cccc(C(=O)c2sc(Nc3ccc(OCCN(C)C)cc3)nc2N)c1 [Example 144, [4-Amino-2-[4-(2-dimethylaminoethoxy)-phenylamino]-thiazol-5-yl]-(3-methoxy-phenyl)-methanone] | 0.087 µM | 2.49 µM |  | 4.54 µM | 130 °C (dec.)
22 | COc1cccc(C(=O)c2sc(Nc3ccc(OCCn4ccnc4)cc3)nc2N)c1 [Example 146, [4-Amino-2-[4-(2-imidazol-1-yl-ethoxy)-phenylamino]-thiazol-5-yl]-(3-methoxy-phenyl)-methanone] | 0.067 µM | 0.6 µM | 4.19 µM | 0.814 µM | 185 to 190 °C
